{"source": "patent US20230355647A1", "about": "“Marker for determining anti-cancer effects of mitochondrial oxidative phosphorylation pathway inhibitor” (NANJING SHIJIANG MEDICINE TECHNOLOGY CO., LTD, priority 2020, published 2023)", "key": {"ACHN": {"test_system": "ACHN", "assay": "Cell viability (CellTiter-Glo), ACHN", "assay_type": "cell-based", "conditions": "Homo sapiens; ACHN cell line, 3-4 days of culture", "protocol": "(§1) Cell viability was detected using the Promega CellTiter-Glo kit, the kit reflected cell viability by directly measuring intracellular ATP content. The inhibitory effect (IC50 value) of Gboxin, a mitochondrial oxidative phosphorylation pathway inhibitor, on different tumor cell lines was tested in the Example. The name, source, and culture condition of each tumor cell line were as follows:\nCell line ACHN (ATCC, No. CRL-1611) was cultured in 10% fetal bovine serum-containing EMEM medium (+P/S).\n(§2) The above tumor cells were cultured in the relevant medium (+P/S), and incubated for 3 h, then the gradient diluted Gboxin was added, and IC50 (50% inhibiting concentration) was measured after 3-4 days of culture."}, "U-251 MG": {"test_system": "U-251 MG", "assay": "Cell viability (CellTiter-Glo), U-251 MG", "assay_type": "cell-based", "conditions": "Homo sapiens; U-251 MG cell line, 3-4 days of culture", "protocol": "as §1\nCell line U-251 MG (ECACC, No. 9063001) was cultured in EMEM medium containing 2 mM glutamine, 1% NEAA, 1 mM sodium pyruvate (NaP) and 10% fetal bovine serum (+P/S).\nas §2"}, "HCC70": {"test_system": "HCC70", "assay": "Cell viability (CellTiter-Glo), HCC70", "assay_type": "cell-based", "conditions": "Homo sapiens; HCC70 cell line, 3-4 days of culture", "protocol": "as §1\nCell line HCC70 (ATCC, No. CRL-2315) was cultured in 10% fetal bovine serum-containing RPMI1640 medium (+P/S).\nas §2"}, "22RV1": {"test_system": "22RV1", "assay": "Cell viability (CellTiter-Glo), 22RV1", "assay_type": "cell-based", "conditions": "Homo sapiens; 22RV1 cell line, 3-4 days of culture", "protocol": "as §1\nCell line 22RV1 (ATCC, No. CRL-2505) was cultured in 10% fetal bovine serum-containing RPMI1640 medium (+P/S).\nas §2"}, "ATN-1": {"test_system": "ATN-1", "assay": "Cell viability (CellTiter-Glo), ATN-1", "assay_type": "cell-based", "conditions": "Homo sapiens; ATN-1 cell line, 3-4 days of culture", "protocol": "as §1\nCell line ATN-1 (RIKEN, No. RBRC-RCB1440) was cultured in RPMI1640 medium containing 10% fetal bovine serum and 0.1 mM NEAA (+P/S).\nas §2"}, "G-361": {"test_system": "G-361", "assay": "Cell viability (CellTiter-Glo), G-361", "assay_type": "cell-based", "conditions": "Homo sapiens; G-361 cell line, 3-4 days of culture", "protocol": "as §1\nCell line G-361 (ATCC, No. CRL-1424) was cultured in 10% fetal bovine serum-containing McCoy's 5a medium (+P/S).\nas §2"}, "[1]": {"test_system": "NCI-H82 cell with overexpression of NNMT protein and/or knockdown of DNMT1 expression", "assay": "Sensitivity of NCI-H82 after NNMT overexpression and/or DNMT1 knockdown, intracellular ATP detection", "assay_type": "cell-based, human", "conditions": "FIG. 21, FIG. 22", "excerpt": "The NCI-H82 cell overexpressing NNMT protein was obtained by inserting the NNMT gene into NCI-H82 cell using a viral vector. The expression of DNMT1 in NCI-H82 cells was knocked down using shRNA transfection. The changes in sensitivity of cells to mitochondrial oxidative phosphorylation pathway inhibitors (Gboxin, Oligomycin A) was investigated using intracellular ATP detection methods after overexpression of NNMT protein and/or knockdown of DNMT1 expression. The experiment result was shown in FIG. 21 and FIG. 22, wherein, “Vector” referred to NCI-H82 cell transfected with empty virus as control group."}, "HCC15": {"test_system": "HCC15", "assay": "Cell viability (CellTiter-Glo), HCC15", "assay_type": "cell-based", "conditions": "HCC15 cell line, 3-4 days of culture", "protocol": "as §1\nCell line HCC15 (KCLB, No. 70015) was cultured in 10% fetal bovine serum-containing RPMI1640 medium (+P/S).\nas §2"}, "mTOR pathway (p-S6)": {"test_system": "mTOR pathway (p-S6)", "assay": "Western Blot of p-S6 protein in tumor cells after inhibitor treatment", "assay_type": "cell-based, human", "conditions": "1 μM or 3 μM Gboxin, 1 μM Oligomycin A, 12 h; for activity of mTOR pathway (p-S6): FIG. 3; for content of p-S6 protein (activity of mTOR pathway): FIG. 2", "protocol": "The inhibition of mitochondrial oxidative phosphorylation pathway could cause the activation of ATF4 stress pathway and the decrease of mTOR pathway activity, the activity of the mTOR pathway was reflected by the expression level of phosphorylated ribosomal protein S6 (ie, p-S6).\n(§3) The tumor cells NCI-H82, G-401 and WSU-DLCL2 were cultured in the relevant 10% FBS-containing medium (+p/s), and incubated overnight, then 1 μM Gboxin, 3 μM Gboxin or 1 μM Oligomycin A as shown in FIG. 2 was added. After 12 h of incubation, the content of ATF4 and p-S6 protein was detected using Western Blot, the experiment result was shown in FIG. 2.\nas §3, with “The cell lines SF126, CFPAC-1” for “The tumor cells NCI-H82, G-401”, “and 786-O” for “and WSU-DLCL2”, “FIG. 3” for “FIG. 2”, “FIG. 3.” for “FIG. 2.”"}, "SNU-449": {"test_system": "SNU-449", "assay": "Cell viability (CellTiter-Glo), SNU-449", "assay_type": "cell-based", "conditions": "Homo sapiens; SNU-449 cell line, 3-4 days of culture", "protocol": "as §1\nCell line SNU-449 (ATCC, No. CRL-2234) was cultured in 10% fetal bovine serum-containing RPMI1640 medium (+P/S).\nas §2"}, "NCI-H1793": {"test_system": "NCI-H1793", "assay": "Cell viability (CellTiter-Glo), NCI-H1793", "assay_type": "cell-based", "conditions": "Homo sapiens; NCI-H1793 cell line, 3-4 days of culture", "protocol": "as §1\nCell line NCI-H1793 (ATCC, No. CRL-5896) was cultured in 5% fetal bovine serum-containing HITES medium (+P/S).\nas §2"}, "SF126": {"test_system": "SF126", "assay": "Cell viability (CellTiter-Glo), SF126", "assay_type": "cell-based", "conditions": "Homo sapiens, SF-126; SF126 cell line, 3-4 days of culture", "protocol": "as §1, with “follows: Cell line SF126 (JCRB, No. IFO50286) was cultured in 10% fetal bovine serum-containing EMEM medium (+P/S). […] Cell viability was detected using the Promega CellTiter-Glo kit, the kit reflected cell viability by directly measuring intracellular ATP content.” for “follows:”"}, "D283 Med": {"test_system": "D283 Med", "assay": "Cell viability (CellTiter-Glo), D283 Med", "assay_type": "cell-based", "conditions": "Homo sapiens; D283 Med cell line, 3-4 days of culture", "protocol": "as §1\nCell line D283 Med (ATCC, No. HTB-185) was cultured in 10% fetal bovine serum-containing EMEM medium (+P/S).\nas §2"}}}
{"smiles": "CCc1n(CC(=O)O[C@@H]2C[C@H](C)CC[C@H]2C(C)C)c2ccccc2[n+]1C.[Cl-]", "note": "[Gboxin]", "values": [{"measurement": "IC50", "setting": "ACHN", "value": 16.6, "unit": "µM"}, {"measurement": "IC50", "setting": "U-251 MG", "value": 16.7, "unit": "µM"}, {"measurement": "IC50", "setting": "HCC70", "value": 11.2, "unit": "µM"}, {"measurement": "IC50", "setting": "22RV1", "value": 2.53, "unit": "µM"}, {"measurement": "IC50", "setting": "ATN-1", "value": 1.55, "unit": "µM"}, {"measurement": "IC50", "setting": "G-361", "value": 3.88, "unit": "µM"}, {"measurement": "sensitivity of NCI-H82 cell to the inhibitor", "setting": "[1]; DNMT1 expression knocked down (sh-DNMT1 #1 or sh-DNMT1 #2) vs Vector", "value": "decreased"}, {"measurement": "sensitivity of NCI-H82 tumor cells to the inhibitor", "setting": "[1]; NNMT overexpressed and DNMT1 knocked down simultaneously (ov-NNMT/sh-DNMT1 #1 and #2)", "value": "decreased more significantly"}, {"measurement": "sensitivity of NCI-H82 cell to the inhibitor", "setting": "[1]; NNMT protein overexpressed alone (ov-NNMT) vs Vector", "value": "decreased"}, {"measurement": "IC50", "setting": "HCC15", "value": 2.26, "unit": "µM"}, {"measurement": "activity of mTOR pathway (p-S6)", "setting": "mTOR pathway (p-S6); 786-O cells", "value": "no significant changes"}, {"measurement": "activity of mTOR pathway (p-S6)", "setting": "mTOR pathway (p-S6); CFPAC-1 cells", "value": "no significant changes"}, {"measurement": "content of p-S6 protein (activity of mTOR pathway)", "setting": "mTOR pathway (p-S6); G-401 cells", "value": "decreased"}, {"measurement": "content of p-S6 protein (activity of mTOR pathway)", "setting": "mTOR pathway (p-S6); NCI-H82 cells", "value": "decreased"}, {"measurement": "activity of mTOR pathway (p-S6)", "setting": "mTOR pathway (p-S6); SF126 cells", "value": "no significant changes"}, {"measurement": "content of p-S6 protein (activity of mTOR pathway)", "setting": "mTOR pathway (p-S6); WSU-DLCL2 cells", "value": "decreased"}, {"measurement": "IC50", "setting": "SNU-449", "value": "> 30", "unit": "µM"}, {"measurement": "IC50", "setting": "NCI-H1793", "value": 16, "unit": "µM"}, {"measurement": "IC50", "setting": "SF126", "value": "> 30", "unit": "µM"}, {"measurement": "IC50", "setting": "D283 Med", "value": 4.81, "unit": "µM"}]}
